Measurements taken from the supplement of paper PMC10883282.

How the values were obtained:
Test in all cases: relative viability vs DMSO control (72 h) (fraction); higher = more viable cells
A204 = system: A204
Method in brief: (§1)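 A 5 µM positive control and 0.1% DMSO vehicle ran alongside sarcoma cell lines seeded in 384-well plates to reach 80–90% confluence. Serially diluted compound, 2.5 µl from source plates of 10 mM to 0.0002 mM, was added after 24 h, and the plates were held 72 h at 37 °C, 5% CO2. Relative viability was worked out from ATPLite readings as percent growth averaged over up to triplicate wells. The values were rescaled so that 1 is full and 0 is none.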

G401 = system: G401
Method in brief: as §1

HS729 = system: HS729
Method in brief: as §1

KHOS-240S = system: KHOS-240S
Method in brief: as §1

MES-SA = system: MES-SA
Method in brief: as §1

RD = system: RD
Method in brief: as §1

SK-ES-1 = system: SK-ES-1
Method in brief: as §1

SK-LMS-1 = system: SK-LMS-1
Method in brief: as §1

SW1353 = system: SW1353
Method in brief: as §1

SW872 = system: SW872
Method in brief: as §1

SW982 = system: SW982
Method in brief: as §1

VA-ES-BJ = system: VA-ES-BJ
Method in brief: as §1

N#CCC1(n2cc(-c3ncnc4[nH]ccc34)cn2)CN(C2CCN(C(=O)c3ccnc(C(F)(F)F)c3F)CC2)C1 [Itacitinib]
Conditions | relative viability
A204, 0.00017 µM | 1.02
A204, 0.00051 µM | 1.02
A204, 0.00152 µM | 1.03
A204, 0.00457 µM | 1.02
A204, 0.01372 µM | 1.04
A204, 0.04115 µM | 1.03
A204, 0.1235 µM | 1.01
A204, 0.3704 µM | 0.959
A204, 1.111 µM | 0.948
A204, 3.333 µM | 0.936
A204, 10 µM | 0.836
G401, 0.00017 µM | 0.99
G401, 0.00051 µM | 0.967
G401, 0.00152 µM | 0.921
G401, 0.00457 µM | 0.912
G401, 0.01372 µM | 0.962
G401, 0.04115 µM | 0.929
G401, 0.1235 µM | 0.902
G401, 0.3704 µM | 0.953
G401, 1.111 µM | 0.931
G401, 3.333 µM | 0.913
G401, 10 µM | 0.862
HS729, 0.00017 µM | 1
HS729, 0.00051 µM | 0.966
HS729, 0.00152 µM | 0.937
HS729, 0.00457 µM | 0.889
HS729, 0.01372 µM | 0.833
HS729, 0.04115 µM | 0.885
HS729, 0.1235 µM | 0.792
HS729, 0.3704 µM | 0.822
HS729, 1.111 µM | 0.806
HS729, 3.333 µM | 0.758
HS729, 10 µM | 0.751
KHOS-240S, 0.00017 µM | 1.05
KHOS-240S, 0.00051 µM | 1.04
KHOS-240S, 0.00152 µM | 1.04
KHOS-240S, 0.00457 µM | 1.06
KHOS-240S, 0.01372 µM | 1.02
KHOS-240S, 0.04115 µM | 1.01
KHOS-240S, 0.1235 µM | 0.984
KHOS-240S, 0.3704 µM | 0.999
KHOS-240S, 1.111 µM | 0.97
KHOS-240S, 3.333 µM | 0.95
KHOS-240S, 10 µM | 0.923
MES-SA, 0.00017 µM | 0.921
MES-SA, 0.00051 µM | 0.934
MES-SA, 0.00152 µM | 0.919
MES-SA, 0.00457 µM | 0.908
MES-SA, 0.01372 µM | 0.922
MES-SA, 0.04115 µM | 0.894
MES-SA, 0.1235 µM | 0.909
MES-SA, 0.3704 µM | 0.886
MES-SA, 1.111 µM | 0.898
MES-SA, 3.333 µM | 0.864
MES-SA, 10 µM | 0.827
RD, 0.00017 µM | 1.01
RD, 0.00051 µM | 1.02
RD, 0.00152 µM | 1.02
RD, 0.00457 µM | 1.07
RD, 0.01372 µM | 1.08
RD, 0.04115 µM | 1.05
RD, 0.1235 µM | 1.05
RD, 0.3704 µM | 1.03
RD, 1.111 µM | 1.04
RD, 3.333 µM | 1.04
RD, 10 µM | 1.06
SK-ES-1, 0.00017 µM | 1.04
SK-ES-1, 0.00051 µM | 0.996
SK-ES-1, 0.00152 µM | 0.977
SK-ES-1, 0.00457 µM | 1.05
SK-ES-1, 0.01372 µM | 0.979
SK-ES-1, 0.04115 µM | 0.976
SK-ES-1, 0.1235 µM | 1.01
SK-ES-1, 0.3704 µM | 0.964
SK-ES-1, 1.111 µM | 0.972
SK-ES-1, 3.333 µM | 0.884
SK-ES-1, 10 µM | 0.855
SK-LMS-1, 0.00017 µM | 1.03
SK-LMS-1, 0.00051 µM | 1.02
SK-LMS-1, 0.00152 µM | 0.994
SK-LMS-1, 0.00457 µM | 0.976
SK-LMS-1, 0.01372 µM | 0.987
SK-LMS-1, 0.04115 µM | 0.997
SK-LMS-1, 0.1235 µM | 0.958
SK-LMS-1, 0.3704 µM | 0.954
SK-LMS-1, 1.111 µM | 0.969
SK-LMS-1, 3.333 µM | 0.913
SK-LMS-1, 10 µM | 0.883
SW872, 0.00017 µM | 1.012
SW872, 0.00051 µM | 1.03
SW872, 0.00152 µM | 0.975
SW872, 0.00457 µM | 0.972
SW872, 0.01372 µM | 0.971
SW872, 0.04115 µM | 0.94
SW872, 0.1235 µM | 0.891
SW872, 0.3704 µM | 0.911
SW872, 1.111 µM | 0.901
SW872, 3.333 µM | 0.902
SW872, 10 µM | 0.859
SW982, 0.00017 µM | 0.979
SW982, 0.00051 µM | 0.996
SW982, 0.00152 µM | 1.01
SW982, 0.00457 µM | 1
SW982, 0.01372 µM | 1.02
SW982, 0.04115 µM | 0.974
SW982, 0.1235 µM | 0.976
SW982, 0.3704 µM | 0.956
SW982, 1.111 µM | 0.983
SW982, 3.333 µM | 0.93
SW982, 10 µM | 0.928
SW1353, 0.00017 µM | 0.987
SW1353, 0.00051 µM | 1
SW1353, 0.00152 µM | 0.982
SW1353, 0.00457 µM | 0.937
SW1353, 0.01372 µM | 0.96
SW1353, 0.04115 µM | 0.939
SW1353, 0.1235 µM | 0.955
SW1353, 0.3704 µM | 0.937
SW1353, 1.111 µM | 0.933
SW1353, 3.333 µM | 0.929
SW1353, 10 µM | 0.87
VA-ES-BJ, 0.00017 µM | 1.05
VA-ES-BJ, 0.00051 µM | 1.03
VA-ES-BJ, 0.00152 µM | 1.02
VA-ES-BJ, 0.00457 µM | 1.02
VA-ES-BJ, 0.01372 µM | 1.01
VA-ES-BJ, 0.04115 µM | 1
VA-ES-BJ, 0.1235 µM | 0.982
VA-ES-BJ, 0.3704 µM | 0.97
VA-ES-BJ, 1.111 µM | 0.972
VA-ES-BJ, 3.333 µM | 0.942
VA-ES-BJ, 10 µM | 0.859
